Where two headings read alike, the source gives them in different places.
Tests used:
[1] = plasma stability in human plasma; type: in vitro ADME; details: human
Experimental: The plasma stability of the angiogenesis inhibitor compounds of the invention was also tested in human plasma at 37° C. (at a 20 μM concentration of the angiogenesis inhibitor compound). The matrix minus the test angiogenesis inhibitor compound was equilibrated at 37° C. for 3 minutes. The assay was initiated by addition of the test compound, and the reaction mixture was incubated in a shaking water bath at 37° C. […] The supernatant was analysed by Liquid Chromatography/Mass spectrometry (LC/MS) using a four point standard curve to obtain percent recovery.
The parent compound remaining (relative to time 0) in the incubation mixture was plotted as a function of time; a first order exponential equation was fit to the observed data, and the elimination half-lives associated with the disappearance of the test angiogenesis inhibitor compound were determined.

[2] = stability in liver microsomes; type: in vitro ADME, rat; details: male, rat, liver microsomes, pH 7.4, male rat liver microsomes 0.5 mg/mL, NADPH regenerating system
Experimental: The stability of the angiogenesis inhibitor compounds in liver microsomes was also tested. The test angiogenesis inhibitor compound at a concentration of 3 μM was incubated with male rat liver microsomes (0.5 mg/mL protein) in the presence of a NADPH regenerating system (1 mM NADP, 10 mM G6P, 1 U/mL G6PdH2, 3 mM MgCl2 ) in 100 mM Phosphate buffer at pH 7.4 at 37° C. Incubations were performed in the presence and absence of 1 μM epoxide hydrolase (EH) inhibitor N-cyclohexyl-N′-(3-phenylpropyl)urea (M. Morisseau et al. (1999) PNAS 96:8849-54) and quantitative analysis performed using LC/MS/MS.
The parent compound remaining (relative to time 0) in the incubation mixture was plotted as a function of time; a first order exponential equation was fit to the observed data, and the elimination half-lives associated with the disappearance of the test compound were determined.

[3] = tested on: collagen-induced arthritis; test: collagen-induced arthritis model; type: in vivo, Louvain rats; details: for mean radiological evaluation score: control group 2.2
Experimental: The efficacy of the compound described above in example 5 was evaluated using a collagen-induced arthritis model. Briefly, syngeneic 8-week-old female Louvain rats were immunized intradermally under ether anesthesia on Day 0 with 0.5 mg chick collagen II (Genzyme, Boston, Mass.) solubilized in 0.1M acetic acid and emulsified in Incomplete Freund's Adjuvant (Difco, Detroit, Mich.). Using this method, more than 90% of rats typically develop synovitis in both hind limbs 10-14 days post immunization. […] The compound of example 5 was dissolved in a combination of ethanol and distilled water. The rats were dosed commencing on day 10 post immunization as follows: (1) control group: vehicle only daily via intravenous injection (iv) (12 rats), (2) high dose group: 30 mg/kg of the compound of example 5 iv every other day (12 rats), (3) low dose group: 15 mg/kg of the compound of example 5 iv every day (12 rats) and (4) oral group: 100 mg/kg of the compound of example 5 every other day by gavage (11 rats).
Daily clinical evaluations of each paw were graded on an integer scale ranging from 0 to 4, where a score of 0 indicates a normal, unaffected limb, and 4 indicates severe joint destruction. The clinical score is the sum of the four limb scores, and has a maximum possible value of 16. Collagen induced arthritis typically develops only in the hind limbs; therefore, a score of 6 to 8 represents severe arthritis.
Radiologic evaluations of the hind limbs were performed by an investigator blinded to the treatment protocol. The score assigned to each limb was based on (1) the degree of soft tissue swelling, (2) narrowing of the space between joints, (3) degree of periosteal new bone formation and (4) the presence of erosions or ankylosis. Each limb was scored on a scale of 1 to 3, with 1 representing a normal limb and 3 representing severe joint destruction.

human tumor cell lines = test: panel of cancer cell lines, overall; type: cell-based; details: in words, summary of Table VIII
Experimental: The compound of example 5 was also evaluated against a panel of cancer cell lines (Alley, M. C. et al. […] Cancer Research 48: 589-601; Grever, M. R., et al. (1992) Seminars in Oncology, Vol. 19, No. 6, pp 622-638; Boyd, M. R., and Paull, K. D. (1995) Drug Development Research 34: 91-109). The human tumor cell lines of the cancer screening panel were grown in RPMI 1640 medium containing 5% fetal bovine serum and 2 mM L-glutamine. Cells were inoculated into 96 well microtiter plates in 100 μL at plating densities ranging from 5,000 to 40,000 cells/well depending on the doubling time of individual cell lines. […]
Following drug addition, the plates were incubated for an additional 48 hours at 37° C., 5% CO2, 95% air, and 100% relative humidity. […] Bound stain was subsequently solubilized with 10 mM trizma base, and the absorbance was read on an automated plate reader at a wavelength of 515 nm. […] Using the seven absorbance measurements [time zero, (Tz), control growth, (C), and test growth in the presence of drug at the five concentration levels (Ti)], the percentage growth was calculated at each of the drug concentrations levels.
Percentage growth inhibition was calculated as: [(Ti−Tz)/(C−Tz)]×100 for concentrations for which Ti>/=Tz [(Ti−Tz)/Tz]×100 for concentrations for which Ti<Tz. […]

Q: For `CO[C@@H]1[C@H](OC(=O)N[C@@H](C(N)=O)C(C)C)CC[C@]2(CO2)[C@H]1[C@@]1(C)O[C@@H]1CC=C(C)C` [Example 5, (1-Carbamoyl-2-methyl-propyl)-carbamic acid-(3R,4S,5S,6R )-5-methoxy-4-[(2R,3R)-2-methyl-3-(3-methyl-but-2-enyl)-oxiranyl]-1-oxa-spiro[2.5]oct-6-yl ester], which recovery at 0 min, 20 μM [1] is on record?
A: 100%

Q: What about the recovery at 15 min, 20 μM [1] of the same compound?
A: 108%

Q: What about the recovery at 30 min, 20 μM [1] of the same compound?
A: 103%

Q: What about the recovery at 60 min, 20 μM [1] of the same compound?
A: 97%

Q: And the recovery at 90 min, 20 μM [1]?
A: 129%

Q: What about the recovery at 120 min, 20 μM [1] of the same compound?
A: 107%

Q: What about the half-life at 20 μM ([1]; plasma) of the same compound?
A: ≥ 500 min

Q: And the half-life at 3 μM ([2]; with 1 μM EH inhibitor, read-out: T1/2 (with EH inhibitor))?
A: 12.1 ± 1 min

Q: And the half-life at 3 μM ([2]; without EH inhibitor, read-out: T1/2 (without EH inhibitor))?
A: 11.9 ± 1 min

Q: What about the “mean daily clinical score (FIG. 2)” value ([3]; each treatment group, 19 day period from day 10) of the same compound?
A: significant therapeutic benefit

Q: What about the “mean radiological evaluation score” value ([3]; high dose group: 30 mg/kg iv every other day) of the same compound?
A: 0.6

Q: What about the “mean radiological evaluation score” value ([3]; low dose group: 15 mg/kg iv every day) of the same compound?
A: 0.6

Q: What about the “mean radiological evaluation score” value ([3]; oral group: 100 mg/kg every other day by gavage) of the same compound?
A: 1.6

Q: And the “inhibitory effect on tumor cell lines” value (human tumor cell lines)?
A: significant inhibitory effect on a wide variety of tumor cell lines

Reference: patent US20050130903A1, “Therapeutic agents and methods of use thereof for the modulation of angiogenesis” (priority 2000, published 2005)
